Test results from patent publication US20070056361A1, “Partitioning gas tracer tests” (UNIVERSITY OF DELAWARE office of the Vice Provost for …, priority 2003, published 2007).
Where two headings read alike, the source gives them in different places. Marks after values point to notes of the source that are not given here.

Tests used:
[1] = Henry's law constant from gas tracer tests in sand column wetted with distilled water; type: physicochemical; conditions: distilled water at 22.5-24.1° C., six trials, ± 95% confidence interval
Excerpt: The experimental procedure used to determine KH was similar to that reported in an earlier study (Deeds, N. E.; McKinney, D. C.; Pope, G. A.; Whitely Jr., G. A. Difluoromethane as partitioning tracer to estimate vadose water saturations. Journal of Environmental Engineering 1999, 125, 630-633). A jacketed glass column 60-cm long and 5-cm in diameter (Ace Glass, Inc., Vineland, N.J.) was packed with 50/70 silica sand (d50=0.26 mm, uniformity index=1.186; U.S. Silica, Ill.) underwater using distilled water. The column was positioned vertically, and suction was applied to the bottom of the column to drain water from the porous medium. […]
A water bath and pump were used to recirculate water in the glass jacket surrounding the porous medium to maintain fluid and gas temperatures between 22.5-24.1° C. during the experiments. […] Tracer concentrations in the gas samples were quantified with a gas chromatograph (Model 8610C, SRI Instruments, Torrance, Calif.): tracers were separated using mol-sieve and silica gel packed columns and then detected with a thermal conductivity (helium) or flame ionization detector (difluoromethane). […]
The Henry's law constant was determined in each of the above tests using the tracer breakthrough curves and the known porosity and water saturation for the porous medium. […]

[2] = Henry's law constant from gas tracer tests in sand column wetted with landfill leachate; type: physicochemical
Description: Three trials were performed to determine KH for the leachate. The experimental procedures were modified slightly from those described above for distilled water. Here, the column was packed with dry sand, purged with nitrogen, and the leachate was flushed upward in the vertically-mounted column to displace the gas. Nitrogen was then injected into the top of the column to force the mobile water out of the column. This procedure allowed the column to be wetted with the leachate while under anaerobic conditions. Between experimental trials anaerobic conditions were maintained in the column to minimize reactions within the leachate that might alter its composition. The temperatures for the leachate tests ranged between 25.5-26.0° C.
The Henry's law constant was determined in each of the above tests using the tracer breakthrough curves and the known porosity and water saturation for the porous medium. Time moment analysis was used to determine the mean tracer velocities; Rf was computed from eq. 1; and using known n and Sw, KH was computed from eq. 3.
Three PGTT were conducted with landfill leachate to explore the influence of leachate composition on difluoromethane partitioning. The porosity and leachate saturation of the sand column were n=0.41 and Sw=0.17 respectively, while the average interstitial gas velocity used in the tracer tests was 25.2 m/day. […]

[3] = Henry's law constant in batch systems from 4° C. to 50° C.; type: physicochemical
Description: Difluoromethane was selected as the partitioning tracer, which partitions into water within the solid waste, while helium was selected as the conservative tracer. A key thermodynamic parameter necessary for interpretation of data from a PGTT is the Henry's law constant of the partitioning tracer. Laboratory tests were conducted in batch systems to determine the Henry's law constant for difluoromethane from 4° C. to 50° C., which covers the temperature range observed in our field tests. In addition, batch experiments were also conducted with filter paper wetted to different degrees to assess the ability of PGTT to measure water in small pores and sorbed to solid surfaces.

[4] = measured at 25° C. (Worksafe Australia); cited from earlier work
[5] = clean water, Deeds et al. 1999; cited from earlier work
[6] = at 25° C., gas/water, cited from earlier work
[7] = for every 10° C. increase in temperature; cited from earlier work

With `FCF` [Difluoromethane] the “KH (dimensionless Henry's law constant)” value [1] was 0.47^b, the “KH (dimensionless Henry's law constant)” value ([1]; listed as difluoromethane) was 0.47±0.07 and the “KH (Henry's law constant)” value ([2]; landfill leachate (Cherry Island Landfill), 25.5-26.0° C., three trials, ± 95% confidence interval) was 0.57±0.09. For the same compound, the “Increase of KH in leachate relative to distilled water” value ([2]; leachate vs distilled water, mean temperature about 2.5° C. higher) was 20%, the “KH (Henry's law constant)” value ([3]; at 4° C.) was 0.34 and the “KH (Henry's law constant)” value ([3]; at 50° C.) was 0.99. The “Log n-Octanol/Water Partition Coefficient” value [4] was 0.21^c and the “KH (Henry's law constant)” value [5] was 0.59.
For `[He]` [Helium], the “KH (dimensionless Henry's law constant)” value [6] is given as 106^a and the “KH (dimensionless Henry's law constant)” value ([6]; listed as helium) is given as “≈ 100”.
For `CF` [fluoromethane], the “Increase in KH with temperature” value [7] is given as “approximately 20%”.
